Measurements taken from patent publication US20260317310A1, “BENZO SIX-MEMBERED HETEROCYCLIC GSPT1 PROTEIN DEGRADATION AGENT AND USE THEREOF” (China Pharmaceutical University, priority 2023, published 2026).
Entries after “also recorded” stand apart in the source; their conditions may differ.

How the values were obtained:
GSPT1 [1] = biological target: T1, GSPT1 (Homo sapiens, UniProt P15170); assay: Time-dependent degradation of GSPT1 in AML cells (FIG. 2); assay type: cell-based; set-up: KG-1 cells (ATCC) were grown in an IMDM culture medium; endogenous in cells; host or cells: KG-1
T1 sequence (P15170 whole entry): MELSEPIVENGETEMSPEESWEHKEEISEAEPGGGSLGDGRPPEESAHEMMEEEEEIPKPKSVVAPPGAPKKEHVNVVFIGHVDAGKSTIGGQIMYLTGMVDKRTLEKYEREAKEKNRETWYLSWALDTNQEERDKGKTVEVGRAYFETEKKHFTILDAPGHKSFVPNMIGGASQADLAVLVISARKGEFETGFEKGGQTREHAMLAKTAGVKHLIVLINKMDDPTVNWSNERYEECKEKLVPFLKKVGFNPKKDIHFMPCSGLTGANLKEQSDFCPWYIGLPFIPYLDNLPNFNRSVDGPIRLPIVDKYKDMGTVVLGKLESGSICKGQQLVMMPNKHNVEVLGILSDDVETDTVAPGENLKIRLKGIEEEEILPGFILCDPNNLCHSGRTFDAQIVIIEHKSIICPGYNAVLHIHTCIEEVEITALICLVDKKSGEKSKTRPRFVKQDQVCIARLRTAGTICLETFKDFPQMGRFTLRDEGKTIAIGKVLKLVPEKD

[2] = Body weight in MV411 xenograft mice; assay type: in vivo, BABL/c Nude mouse; details: A-10 15, 30, 60 mg/kg, A-42 60 mg/kg, oral
Experimental: (§1) The human leukemia cells MV411 (Cell Bank, Chinese Academy of Sciences) used in this experiment were cultured in an IMDM culture medium supplemented with 10% FBS in an incubator containing CO2 at 37° C. Before the cells were continuously sub-cultured to the tenth generation, MV411 cells in the logarithmic growth phase were used, and the cell concentration was adjusted to 1×10^8 cells/mL with a serum-free culture medium. Each BABL/c Nude mouse (Jiangsu GemPharmatech Co., Ltd., female, 4-6 weeks old, 14-16 g) was inoculated with […] of the cell suspension by subcutaneous injection on the right dorsal side (near the axilla) under sterile conditions. When the mean tumor volume of the tumor-bearing mice reached approximately 100 mm^3, the mice were randomly divided into groups, with the tumor volume in each group being roughly the same. The day of grouping and administration was defined as day 0. The animals in each treatment group were given a compound once daily by oral gavage at 15 mg/kg, 30 mg/kg, or 60 mg/kg. The body weight and tumor volume of the animals were measured every other day.

GSPT1 [3] = biological target: T1, GSPT1; assay: Degradation of GSPT1 in MV4-11 cells (FIG. 1C, 1D); assay type: cell-based; set-up: endogenous in cells; details: FIGS. 1 and 2
GSPT1 [4] = biological target: T1, GSPT1; assay: Degradation of GSPT1 in KG-1 cells (immunoblot, 200 nM, 4 h); assay type: cell-based; set-up: endogenous in cells; host or cells: KG-1; details: FIGS. 1 and 2
Experimental: KG-1 cells (ATCC) were grown in an IMDM culture medium (containing 20% FBS). After centrifugation and counting, the cell concentration was adjusted. The cells were plated onto 6-well plates at 10^6 cells/well, with 1350 μL per well. 150 μL of DMSO and the test compounds of the present disclosure (compound concentration: 200 nM) were added. The plates were incubated in an incubator at 37° C. with 5% CO2 for 4 hours. The cells were centrifuged, and the culture medium was discarded. PBS was added to wash the cells and then discarded. Whole cell lysates were prepared using a protease inhibitor cocktail (100×, Fude Biological), a protein phosphatase inhibitor cocktail (100×, Fude Biological), SuperNuclease (Beyotime), and a high-intensity RIPA lysis buffer (Thermo Fisher) and placed on ice for 30 minutes. After centrifugation, the cell debris precipitates were discarded, and the whole cell lysate supernatants were collected and transferred to new centrifuge tubes. After a BCA protein assay, samples were prepared using a 5× loading buffer (Thermo Fisher). […] Signals were detected using a MINICHEMI™ imaging system. […]

MV411 xenograft = assay: In vivo pharmacodynamic study in MV411 acute myeloid leukemia xenograft mouse model; set-up: species or system human leukemia cells in BABL/c Nude mouse
Experimental: as §1
Experimental indicator: The anti-tumor efficacy of the compounds was evaluated using the relative tumor growth inhibition rate (TGI). Tumor weight TGI (%)={1−[(final average tumor weight of experimental group)/(final average tumor weight of control group of tumor-bearing mice without administration)]}×100%. Tumor volume TGI (%)=[1−relative tumor volume of experimental group/relative tumor volume of control group of tumor-bearing mice without administration]×100%.

22RV1 xenograft = assay: In vivo pharmacodynamic study in 22RV1 prostate cancer xenograft mouse model; set-up: species or system 22RV1 cells in BABL/c Nude mouse
Experimental: The 22RV1 cells (Cell Bank, Chinese Academy of Sciences) used in this experiment were cultured in a 1640 culture medium supplemented with 10% FBS in an incubator containing CO2 at 37° C. Before the cells were continuously sub-cultured to the tenth generation, 22RV1 cells in the logarithmic growth phase were used, and the cell concentration was adjusted to 5×10^7 cells/mL with a serum-free culture medium. Each BABL/c Nude mouse was inoculated with […] of the cell suspension by subcutaneous injection on the right dorsal side (near the axilla) under sterile conditions. When the mean tumor volume of the tumor-bearing mice reached approximately 50-100 mm^3, the mice were randomly divided into 4 groups of 8, with the tumor volume in each group being roughly the same. The day of grouping and administration was defined as day 0. The animals in each treatment group were given a compound once daily by oral gavage at 60 mg/kg.
The body weight and tumor volume of the animals were measured every other day.
Experimental indicator: The anti-tumor efficacy of the compounds was evaluated using the relative tumor growth inhibition rate (TGI). Tumor weight TGI (%)={1−[(final average tumor weight of experimental group)/(final average tumor weight of control group of tumor-bearing mice without administration)]}×100%.

[5] = In vivo pharmacokinetic study in rats (IV and PO); set-up: species or system rat (SD); details: rat; for bioavailability: plasma, PO 10 mg/kg (IV 2 mg/kg); for clearance rate relative to CC-90009 / half-life relative to CC-90009 / initial plasma concentration relative to CC-90009 / plasma drug exposure level relative to CC-90009: IV
Experimental: Sample collection and preparation: After SPF SD rats (male, 210-230 g, 42-48 days, RILD Liver) in a good growth state were dosed intravenously at 2 mg/kg and orally at 10 mg/kg, blood samples were collected via the orbit at different blood collection time points and transferred to centrifuge tubes containing an anticoagulant; the intravenous blood collection time points were 0.08 hours, 0.25 hours, 0.5 hours, 1 hour, 2 hours, 4 hours, 6 hours, 8 hours, and 24 hours, and the oral blood collection time points were 0.25 hours, 0.5 hours, 1 hour, 2 hours, 4 hours, 6 hours, 8 hours, and 24 hours. The blood samples were immediately centrifuged at 4° C. and 8000 rpm for 10 minutes, and the plasma was collected and stored in an ultra-low-temperature freezer at −80° C. until it was analyzed by LC-MS/MS.
Pharmacokinetic data analysis: Pharmacokinetic parameters of the compounds were calculated using pharmacokinetic software in a non-compartmental model. The peak plasma concentration (Cmax) and the time to reach the peak plasma concentration (Tmax) were taken as observation values. Parameters such as the half-life T1/2, the areas under the plasma concentration-time curve AUClast and AUCinf, the apparent volume of distribution Vss, and the clearance rate CL were determined through regression analysis of the linear terminal portion of the logarithmic plasma concentration-time curve and the linear trapezoidal rule.

[6] = Metabolic stability in in vitro rat liver microsomes; assay type: in vitro ADME; details: NADPH, 37° C.
Excerpt: RLMs were purchased from RILD Liver.

KG-1 cells = assay: Antiproliferative activity against KG-1 cells (CCK8, 72 h); assay type: cell-based; details: Homo sapiens
Experimental: KG-1 cells in the logarithmic growth phase were diluted in a culture medium (RPMI+10% FBS) and plated onto 96-well plates at 5000 cells/well, and the plates were incubated in an incubator at 37° C. with 5% CO2 for 24 hours. 10 mM stock solutions of the test compounds of the present disclosure in DMSO were prepared and diluted with the culture medium to set 9 concentration gradients. Three replicate wells were set for each concentration. After compound addition, the plates were incubated in an incubator at 37° C. with 5% CO2 for 72 hours. The cell proliferation was assessed using the CCK8 method. The cell growth inhibition IC50 values of the compounds were determined using an enzyme labeling method. The IC50 values were calculated using GraphPad Prism 7 software.
The antiproliferative activity of the compounds against KG-1 cells is shown in Table 2, where A represents IC50<1 nM, B represents 1<IC50<10 nM, C represents 10 nM≤IC50<100 nM, D represents 100 nM≤IC50<1000 nM, and E represents IC50≥1000 nM.

[7] = 60 mg/kg once daily oral gavage

| plasma drug exposure level relative to CC-90009 ([5]; compared to CC-90009) | Compound | weight loss in mice [2] | dependence of GSPT1 degradation on concentration and time (GSPT1 [3]) | dependence of GSPT1 degradation on concentration and time (GSPT1 [4]) | bioavailability [5] | clearance rate relative to CC-90009 ([5]; compared to CC-90009) | half-life relative to CC-90009 ([5]; compared to CC-90009) | initial plasma concentration relative to CC-90009 ([5]; compared to CC-90009) | exposure level relative to CC-90009 ([5]; oral, compared to CC-90009) | other results |
| --- | --- | --- | --- | --- | --- | --- | --- | --- | --- | --- |
| greatly superior to those of CC-90009 | O=C1CCC(N2Cc3cc(CNC(=O)C4=Cc5ccccc5OC4)ccc3C2=O)C(=O)N1 (centres unmarked) [Compound A-1, N-((2-(2,6-Dioxopiperidin-3-yl)-1-oxoisoindolin-5-yl)methyl)-2H-chromene-3-carboxamide] |  | concentration-dependent and time-dependent; also recorded: more significant than that of CC-90009 | concentration-dependent and time-dependent; also recorded: more significant than that of CC-90009 | 19.3 ± 3.4% | less than that of the clinical drug CC-90009 | close to that of CC-90009 | greatly superior to those of CC-90009 |  | RLM CL [6]: 3.75 µL/min/mg; RLM T1/2 [6]: 369.94 min |
| fourteen times | O=C1CCC(N2Cc3c(ccc(CNC(=O)C4=Cc5cc(OC(F)(F)F)ccc5OC4)c3F)C2=O)C(=O)N1 (centres unmarked) [Compound A-42, N-((2-(2,6-Dioxopiperidin-3-yl)-4-fluoro-1-oxoisoindolin-5-yl)methyl)-6-(trifluoromethoxy)-2H-chromene-3-carboxamide] | no significant weight loss |  |  | 9.8 ± 1.5% | lower clearance rate |  |  | four times | in vivo anti-tumor effect compared to MRT-2359 (MV411 xenograft; MV411 xenograft, 60 mg/kg oral gavage, vs MRT-2359): comparable to that of the clinical molecule MRT-2359 |
|  | Cc1cc2c(cc1Cl)C=C(C(=O)NCc1ccc3c(c1)CN(C1CCC(=O)NC1=O)C3=O)CO2 (centres unmarked) [Compound A-28] |  |  |  |  |  |  |  |  | IC50 (KG-1 cells): 10 to 100 nM |
|  | O=C1CCC(N2Cc3cc(CNC(=O)C(F)(F)c4ccc(Cl)cc4)ccc3C2=O)C(=O)N1 (centres unmarked) [CC-90009, reference compound] |  |  |  | 31.2 ± 9.1% |  |  |  |  |  |

| Compound | plasma drug exposure level relative to CC-90009 ([5]; compared to CC-90009) | weight loss in mice [2] | dependence of GSPT1 degradation on concentration and time (GSPT1 [3]) | dependence of GSPT1 degradation on concentration and time (GSPT1 [4]) | bioavailability [5] | clearance rate relative to CC-90009 ([5]; compared to CC-90009) | half-life relative to CC-90009 ([5]; compared to CC-90009) | initial plasma concentration relative to CC-90009 ([5]; compared to CC-90009) | exposure level relative to CC-90009 ([5]; oral, compared to CC-90009) | other results |
| --- | --- | --- | --- | --- | --- | --- | --- | --- | --- | --- |
| O=C1CCC(N2Cc3cc(CNC(=O)C4=Cc5cc(OC(F)(F)F)ccc5OC4)ccc3C2=O)C(=O)N1 (centres unmarked) [Compound A-10, N-((2-(2,6-Dioxopiperidin-3-yl)-1-oxoisoindolin-5-yl)methyl)-6-trifluoromethoxy-2H-chromene-3-carboxamide] | nearly four times that of CC-90009 | no significant weight loss | concentration-dependent | concentration-dependent | 22.9 ± 12.6% | one third of that of CC-90009 | longer than that of CC-90009 | much higher than that of CC-90009 | nearly three times that of CC-90009 | time-dependent degradation of GSPT1 (GSPT1 [1]): time-dependent; tumor weight TGI (MV411 xenograft; 15 mg/kg once daily oral gavage): 20.82%; tumor weight TGI (MV411 xenograft; 30 mg/kg once daily oral gavage): 56.61%; tumor weight TGI (MV411 xenograft; [7]): 59.76%; in vivo anti-tumor effect compared to CC-90009 (MV411 xenograft; MV411 xenograft, oral gavage, vs CC-90009): significantly better than that of the clinical molecule CC-90009; TGI (22RV1 xenograft; [7]): 95.10%; TGI compared to CC-90009 and enzalutamide (22RV1 xenograft; 22RV1 xenograft, 60 mg/kg oral gavage): significantly better than those of the clinical molecule CC-90009 and the commercially available drug enzalutamide; peak ([5]; oral, compared to CC-90009): relatively high peak; time to peak ([5]; oral, compared to CC-90009): relatively small time to peak |
